Paper PMC8286840, “Identifying SARS-CoV-2 antiviral compounds by screening for small molecule inhibitors of Nsp3 papain-like protease” (Biochemical Journal, 2021)
Structures can show the parent of a compound that is named as a salt. Where two headings read alike, the source gives them in different places.

Assays:
[1] = molecular target: T1, SARS-CoV-2 PLpro (nsp3 1564–1878) (Severe acute respiratory syndrome coronavirus 2, UniProt P0DTD1); assay: biochemical; design: FRET-quenched peptide (Pro3) cleavage by PLpro, 10 min pre-incubation, slope over 20 min, normalised to no-compound control; settings: low concentration screen, read-out: % of control remaining
[2] = molecular target: T1, SARS-CoV-2 PLpro (nsp3 1564–1878); assay: biochemical; design: FRET-quenched peptide (Pro3) cleavage by PLpro, 10 min pre-incubation, slope over 20 min, normalised to no-compound control; settings: high concentration screen, read-out: % of control remaining

SMILES: CCCN[C@H]1CCc2nc(N)sc2C1 [Pramipexole (dihydrochloride)]
- remaining activity at 1.25 µM ([1]; Well no.=6229): 108%
- remaining activity at 3.75 µM ([2]; Well no.=6229): 106%

SMILES: c1ccc2c(c1)CCCC2C1=NCCN1 (centres unmarked) [Tetrahydrozoline (hydrochloride)]
- remaining activity at 1.25 µM ([1]; Well no.=8099): 96.6%
- remaining activity at 3.75 µM ([2]; Well no.=8099): 91.5%

SMILES: N#Cc1cc2nc(O)c(O)nc2cc1[N+](=O)[O-] [CNQX disodium]
- remaining activity at 1.25 µM ([1]; Well no.=681): 101%
- remaining activity at 3.75 µM ([2]; Well no.=681): 102%

SMILES: CCOC(=O)C1=C(C)NC(C)=C(C(=O)OCC)C1c1ccccc1/C=C/C(=O)OC(C)(C)C [Lacidipine]
- remaining activity at 1.25 µM ([1]; Well no.=1798): 99.9%
- remaining activity at 3.75 µM ([2]; Well no.=1798): 100%

SMILES: O=C(c1ccccc1)c1ccc2nc(NC(=O)c3csc(C4CCN(c5ncnc6ccsc56)CC4)n3)[nH]c2c1 [SC75741]
- remaining activity at 1.25 µM ([1]; Well no.=6922): 100%
- remaining activity at 3.75 µM ([2]; Well no.=6922): 101%

SMILES: CCn1c(=O)c2[nH]c(-c3ccccc3)nc2n(CC)c1=O [1,3-Diethyl-8-phenylxanthine]
- remaining activity at 1.25 µM ([1]; Well no.=204): 98.5%
- remaining activity at 3.75 µM ([2]; Well no.=204): 100%

SMILES: CN(C)N(C)C(=O)[C@@]1(Cc2ccccc2)CCCN(C(=O)[C@@H](Cc2c[nH]c3ccccc23)NC(=O)C(C)(C)N)C1 [Anamorelin]
- remaining activity at 1.25 µM ([1]; Well no.=8437): 97.3%
- remaining activity at 3.75 µM ([2]; Well no.=8437): 96.9%

SMILES: COc1ccc(-c2cnc3c(-c4ccsc4)cnn3c2)cc1 [VEGF Receptor 2 Kinase Inhibitor IV]
- remaining activity at 1.25 µM ([1]; Well no.=2655): 95.2%
- remaining activity at 3.75 µM ([2]; Well no.=2655): 97%

SMILES: Cc1cc(C)nc(NS(=O)(=O)c2ccc(NC(=S)NC(=O)COc3ccc(Br)cc3Cl)cc2)n1 [ZCL278]
- remaining activity at 1.25 µM ([1]; Well no.=7884): 98.2%
- remaining activity at 1.25 µM ([1]; Well no.=8389): 102%
- remaining activity at 3.75 µM ([2]; Well no.=7884): 99.2%
- remaining activity at 3.75 µM ([2]; Well no.=8389): 96.3%

SMILES: CCCCC(=O)N(Cc1ccc(-c2ccccc2-c2nnn[nH]2)cc1)[C@H](C(=O)O)C(C)C [Valsartan]
- remaining activity at 1.25 µM ([1]; Well no.=7542): 94.7%
- remaining activity at 1.25 µM ([1]; Well no.=8247): 105%
- remaining activity at 3.75 µM ([2]; Well no.=7542): 98%
- remaining activity at 3.75 µM ([2]; Well no.=8247): 99.1%

SMILES: CN1CCN(CCc2ccc(Cl)c(Cl)c2)CC1 [BD1063 (dhydrochloride)]
- remaining activity at 1.25 µM ([1]; Well no.=8057): 90.2%
- remaining activity at 3.75 µM ([2]; Well no.=8057): 95.3%

SMILES: C=CC[N+](C)(C)c1ccc(CCC(=O)CCc2ccc([N+](C)(C)CC=C)cc2)cc1 [BW 284c51]
- remaining activity at 1.25 µM ([1]; Well no.=152): 98.6%
- remaining activity at 3.75 µM ([2]; Well no.=152): 101%

SMILES: CCCCCCCC/C=C\CCCCCCCC(=O)NCCO [N-Oleoylethanolamine]
- remaining activity at 1.25 µM ([1]; Well no.=1086): 96.9%
- remaining activity at 3.75 µM ([2]; Well no.=1086): 94.6%

SMILES: Cc1ccc(C(=O)Nc2ccc(CN3CCN(C)CC3)c(C(F)(F)F)c2)cc1C#Cc1cnc2cccnn12 [Ponatinib (AP24534)]
- remaining activity at 1.25 µM ([1]; Well no.=4913): 98.1%
- remaining activity at 3.75 µM ([2]; Well no.=4913): 95.4%

SMILES: O=C(NC(NC(=S)Nc1ccc(F)c([N+](=O)[O-])c1)C(Cl)(Cl)Cl)C(c1ccccc1)c1ccccc1 (racemic)
- remaining activity at 1.25 µM ([1]; Well no.=2588): 94.8%
- remaining activity at 3.75 µM ([2]; Well no.=2588): 93.4%

SMILES: CCn1cnc2c(Nc3cccc(Cl)c3)nc(N[C@@H]3CCCC[C@@H]3N)nc21 [Cdk1 Inhibitor, CGP74514A]
- remaining activity at 1.25 µM ([1]; Well no.=2366): 96.7%
- remaining activity at 3.75 µM ([2]; Well no.=2366): 96.1%

SMILES: NC[C@H]1O[C@H](O[C@H]2[C@H](O)[C@@H](O[C@H]3O[C@H](CO)[C@@H](O)[C@H](N)[C@H]3O)[C@H](N)C[C@@H]2N)[C@H](N)C[C@@H]1O [Tobramycin (free base)]
- remaining activity at 1.25 µM ([1]; Well no.=1960): 96.2%
- remaining activity at 3.75 µM ([2]; Well no.=1960): 95.9%

SMILES: NC1(Cc2ccc(Cl)cc2)CCN(c2ncnc3[nH]ccc23)CC1 [CCT128930]
- remaining activity at 1.25 µM ([1]; Well no.=5302): 97.5%
- remaining activity at 3.75 µM ([2]; Well no.=5302): 95.6%

SMILES: COc1nccnc1NS(=O)(=O)c1ccc(N)cc1 [Sulfalene]
- remaining activity at 1.25 µM ([1]; Well no.=8228): 103%
- remaining activity at 3.75 µM ([2]; Well no.=8228): 85.7%

SMILES: CCCCCN(CCCCC)C(=O)C(CCC(=O)O)NC(=O)c1ccc(Cl)c(Cl)c1 (centres unmarked) [Lorglumide sodium]
- remaining activity at 1.25 µM ([1]; Well no.=820): 102%
- remaining activity at 3.75 µM ([2]; Well no.=820): 99.3%

SMILES: O=C(Nc1ccc(CN2CCOCC2)cc1)c1ccc(-c2cccc(Cl)c2)o1 [CID 2011756]
- remaining activity at 1.25 µM ([1]; Well no.=6582): 97.3%
- remaining activity at 3.75 µM ([2]; Well no.=6582): 101%

SMILES: C=CCc1ccccc1OCC(O)CNC(C)C (centres unmarked) [Alprenolol (hydrochloride)]
- remaining activity at 1.25 µM ([1]; Well no.=6327): 102%
- remaining activity at 3.75 µM ([2]; Well no.=6327): 103%

SMILES: CN(C)c1ccc(C(=C2C=CC(=[N+](C)C)C=C2)c2ccc(N(C)C)cc2)cc1 [Crystal violet]
- remaining activity at 1.25 µM ([1]; Well no.=5000): 101%
- remaining activity at 3.75 µM ([2]; Well no.=5000): 101%

SMILES: c1ccc2nc(C3=NCCN3)ccc2c1 [BU224 hydrochloride]
- remaining activity at 1.25 µM ([1]; Well no.=39): 102%
- remaining activity at 3.75 µM ([2]; Well no.=39): 105%

SMILES: N#CC(=C(/N)Sc1ccccc1N)/C(C#N)=C(\N)Sc1ccccc1N [U0126]
- remaining activity at 1.25 µM ([1]; Well no.=1240): 99.2%
- remaining activity at 3.75 µM ([2]; Well no.=1240): 101%

SMILES: Cc1ccc([C@@H]2O[C@H](CO)[C@@H](O)[C@H](O)[C@H]2O)cc1Cc1ccc(-c2ccc(F)cc2)s1 [Canagliflozin]
- remaining activity at 1.25 µM ([1]; Well no.=5075): 94.6%
- remaining activity at 3.75 µM ([2]; Well no.=5075): 95.2%

SMILES: c1ccc2c3c([nH]c2c1)CNCC3 [Noreleagnine]
- remaining activity at 1.25 µM ([1]; Well no.=3260): 101%
- remaining activity at 3.75 µM ([2]; Well no.=3260): 101%

SMILES: CC1CCN(CC[C@H]2CCCN2S(=O)(=O)c2cccc(O)c2)CC1 [SB-269970 (hydrochloride)]
- remaining activity at 1.25 µM ([1]; Well no.=8385): 108%
- remaining activity at 3.75 µM ([2]; Well no.=8385): 101%

SMILES: CCC(=O)N1CCN(c2ccc(-n3c(=O)ccc4cnc5ccc(-c6cnc7ccccc7c6)cc5c43)cc2C(F)(F)F)CC1 [Torin 1]
- remaining activity at 1.25 µM ([1]; Well no.=4795): 106%
- remaining activity at 3.75 µM ([2]; Well no.=4795): 102%

SMILES: COc1cccc2c1C(=O)c1c(O)c3c(c(O)c1C2=O)C[C@@](O)(C(C)=O)C[C@@H]3O[C@H]1C[C@H](N)[C@H](O)[C@H](C)O1 [Daunorubicin]
- remaining activity at 1.25 µM ([1]; Well no.=1708): 96.8%
- remaining activity at 1.25 µM ([1]; Well no.=3221): 103%
- remaining activity at 3.75 µM ([2]; Well no.=1708): 97.4%
- remaining activity at 3.75 µM ([2]; Well no.=3221): 104%

SMILES: COc1cc2c(Oc3ccc4[nH]c(C)cc4c3F)ncnc2cc1OCCCN1CCCC1 [Cediranib (AZD2171)]
- remaining activity at 1.25 µM ([1]; Well no.=4999): 101%
- remaining activity at 3.75 µM ([2]; Well no.=4999): 103%

SMILES: COc1cc2ncnc(Nc3ccc(O)cc3)c2cc1OC [WHI-P131]
- remaining activity at 1.25 µM ([1]; Well no.=1338): 93.8%
- remaining activity at 3.75 µM ([2]; Well no.=1338): 97.1%

SMILES: O=c1c(O)c(-c2ccc(O)c(O)c2)oc2cc(O)c(O)c(O)c12 [Quercetagetin]
- remaining activity at 1.25 µM ([1]; Well no.=2589): 89%
- remaining activity at 3.75 µM ([2]; Well no.=2589): 92.1%

SMILES: COc1cc2c3c(c1OC)-c1ccccc1C[C@H]3N(C)CC2 [Nuciferine]
- remaining activity at 1.25 µM ([1]; Well no.=8335): 95.2%
- remaining activity at 3.75 µM ([2]; Well no.=8335): 89%
